Results reported in article PMC9862588, “The Bi-Functional Paxilline Enriched in Skin Secretion of Tree Frogs (Hyla japonica) Targets the KCNK18 and BKCa Channels” (Toxins, 2023).

Biological target: T1, KCNK18 (Rattus norvegicus, UniProt Q6Q1P3)
T1 sequence (Q6Q1P3 1-405): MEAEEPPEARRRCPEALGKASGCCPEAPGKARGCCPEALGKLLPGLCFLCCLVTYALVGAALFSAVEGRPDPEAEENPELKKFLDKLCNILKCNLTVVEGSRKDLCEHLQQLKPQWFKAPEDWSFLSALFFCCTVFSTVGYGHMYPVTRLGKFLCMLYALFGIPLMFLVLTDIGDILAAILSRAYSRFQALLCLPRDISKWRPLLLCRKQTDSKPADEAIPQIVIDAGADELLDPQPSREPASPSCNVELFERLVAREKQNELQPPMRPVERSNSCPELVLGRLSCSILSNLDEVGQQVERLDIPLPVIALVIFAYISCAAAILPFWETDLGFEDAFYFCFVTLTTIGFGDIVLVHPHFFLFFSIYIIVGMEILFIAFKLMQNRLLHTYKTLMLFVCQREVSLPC
Test: whole-cell patch clamp of transfected HEK293 cells, dose-response; loss of effect on F375 swap and F167A
Type: cell-based

CC(C)(O)[C@H]1O[C@H]2CC[C@@]3(C)[C@@](O)(CC[C@H]4Cc5c([nH]c6ccccc56)[C@@]43C)C2=CC1=O [PAX, Paxilline]
IC50: 4.13 ± 0.04 µM
